The results in this text go back to ChEMBL document CHEMBL1137911, “Synthesis and evaluation of 4-triazolylflavans as new aromatase inhibitors” (Bioorg Med Chem Lett, 2004).

In series [1] the target is T1, Aromatase (Homo sapiens, UniProt P11511).
T1 sequence (P11511 whole entry): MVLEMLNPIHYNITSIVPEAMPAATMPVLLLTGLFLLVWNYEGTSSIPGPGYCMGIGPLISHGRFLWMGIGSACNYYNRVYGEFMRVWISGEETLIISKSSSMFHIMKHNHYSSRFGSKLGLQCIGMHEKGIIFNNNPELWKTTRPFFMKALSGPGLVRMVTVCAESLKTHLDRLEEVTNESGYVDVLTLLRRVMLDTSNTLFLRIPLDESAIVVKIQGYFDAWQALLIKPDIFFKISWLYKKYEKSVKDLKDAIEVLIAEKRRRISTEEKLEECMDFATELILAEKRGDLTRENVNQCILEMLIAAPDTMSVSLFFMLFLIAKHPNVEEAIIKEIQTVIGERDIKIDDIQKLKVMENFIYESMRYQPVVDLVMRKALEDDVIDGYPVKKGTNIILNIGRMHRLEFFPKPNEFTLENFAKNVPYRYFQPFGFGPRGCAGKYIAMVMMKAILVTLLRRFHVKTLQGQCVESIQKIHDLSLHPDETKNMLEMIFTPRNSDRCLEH
Put plainly: Relative potency for inhibition of aromatase binding compared to aminoglutethimide.

Series [2] has as its target T1, Aromatase. The series is described as follows: In vitro inhibition of [1,2,6,7-3H]androstenedione binding to Aromatase of human placental microsomes.

pIC50: −log10 of the molar value.

In the case of `COc1ccc2c(c1)OC(c1ccccc1)CC2n1cnnc1` (stereo not drawn), at Aromatase [1], the “Relative Potency” value was determined as 0.16. Besides, on Aromatase [2], the pIC50 is 4.50.

Turning to `COc1ccc2c(c1)OC(c1ccccc1)CC2n1cncn1` (stereo not drawn), the “Relative Potency” value at Aromatase [1] was found to be 3.7. The compound also showed a pIC50 at Aromatase [2] of 5.85.

For the compound `Oc1ccc2c(c1)OC(c1ccccc1)CC2n1cncn1` (stereo not drawn), the “Relative Potency” value on Aromatase [1] came to 12.1. Further, the pIC50 at Aromatase [2] was 6.37.

`Oc1ccc2c(c1)OC(c1ccccc1)CC2n1ccnc1` (stereo not drawn): the “Relative Potency” value at Aromatase [1] is 126.8. The compound further gave a pIC50 at Aromatase [2] of 7.40.

The pIC50 is the IC50 on a negative log10 scale, so that one unit is a factor of ten.
